Values quoted from earlier work, collected in US20240000730A1, “ANTIHISTAMINE SEMI-SOLID CHEWABLE GEL COMPOSITIONS AND METHODS OF MAKING AND USING THEREOF” (Seattle Gummy Company, priority 2021, published 2024).

Columns and labels:
[1] = ITC measurements
[2] = ITC measurements; remark: listed apart in the source
[3] = ITC measurements; remark: listed apart in the source

In the case of `O=C(O)COCCN1CCN(C(c2ccccc2)c2ccc(Cl)cc2)CC1` (stereo not drawn) [Cetirizine, cetirizine], the “association constant K(a) of the cetirizine-α-cyclodextrin complex” value [1] is listed as 1434 ± 60 M⁻¹, the “association constant K(a) of the cetirizine-β-cyclodextrin complex” value [2] is listed as 5641 ± 358 M⁻¹ and the “association constant of the cetirizine-γ-cyclodextrin complex” value [3] is listed as 1200±50 (−1).
